For 7 compounds, Ki and EC50 results are on record in patent US20240174696A1, “2,8-DIAZASPIRO[4.5]DECANE COMPOUNDS” (Genentech, Inc., priority 2021, published 2024).

A value given as a limit tells only on which side of the number the result lay.

Broadly, the Ki is a measure of affinity in units of concentration, obtained from inhibition or displacement. Read a low Ki as tighter binding. As a reminder, the EC50 is the concentration needed to bring the measured effect to its halfway point. The low end stands for a more potent agent, the high end for a less potent agent.

For assay [1], the target named is T1, Human LATS2 catalytic domain (Homo sapiens (Human), UniProt Q9NRM7). The assay can be described thus: Standard LATS2 HTRF Assay. Type of assay: biochemical. As to conditions: asterisk: Standard LATS2 HTRF Assay, 50 μM ATP, 0.2 nM LATS2. As for the experimental part: Human LATS2 catalytic domain which contains the amino acids G553-V1088 (accession NP_055387) was purified in-house. The LATS2 catalytic domain was co-purified with Mob1b (accession NP_775739). The LATS2 biochemical HTRF assay was performed using the HTRF KinEASE-STK S1 Kit (Cisbio, Cat #62ST1PEC), following the protocol from the manufacturer. Compounds were dispensed by the Echo Liquid Handler (Labcyte) into a white 384-well plate (PerkinElmer, Cat #6008289). 3 uL of 2×LATS2 enzyme solution was added to the compounds, following by a 10 minute incubation at room temperature. Then, 2×ATP and STK S1 peptide solution was added to initiate the one hour enzyme reaction at room temperature. The final condition of the reaction was 0.2 nM LATS2, 50 μM ATP, 0.5 μM STK S1 peptide in 50 mM HEPES pH7.2, 10 mM MgCl2, 0.1% BGG, 0.005% Brij-35, 1 mM DTT. The reaction was quenched by adding 6 uL of the detection mixture which contained Streptavidin XL665 and STK Antibody-Cryptate (Cisbio), incubate for 1 hour at room temperature. The HTRF (665 nm/620 nm) signal was read on the Envision plater reader (PerkinElmer). The IC50 values were determined by fitting the % inhibition with a nonlinear four-parameter logistical equation. The Ki values were calculated using the Cheng-Prusoff equation for a competitive inhibitor, IC50═Ki (1+S/Km)+M [E] with ATP Km for LATS2=105 μM.
T1 sequence (Q9NRM7 553-1088): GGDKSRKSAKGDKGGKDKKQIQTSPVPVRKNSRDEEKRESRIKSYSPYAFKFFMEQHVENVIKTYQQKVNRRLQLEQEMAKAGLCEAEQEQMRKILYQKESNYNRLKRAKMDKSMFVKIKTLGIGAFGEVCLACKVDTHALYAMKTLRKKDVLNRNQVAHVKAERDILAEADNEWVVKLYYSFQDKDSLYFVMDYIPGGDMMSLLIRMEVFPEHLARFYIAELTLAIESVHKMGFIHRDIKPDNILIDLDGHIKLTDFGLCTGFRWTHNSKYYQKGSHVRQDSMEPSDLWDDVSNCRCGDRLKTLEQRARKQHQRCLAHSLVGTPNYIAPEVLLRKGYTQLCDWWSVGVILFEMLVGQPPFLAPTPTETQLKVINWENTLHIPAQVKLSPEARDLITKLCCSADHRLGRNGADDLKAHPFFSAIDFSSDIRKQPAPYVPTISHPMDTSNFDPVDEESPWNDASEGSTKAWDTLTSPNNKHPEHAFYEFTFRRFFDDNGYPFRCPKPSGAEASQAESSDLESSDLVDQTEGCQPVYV
T1 sequence (Q7L9L4 whole entry partner, the tested form may be a part): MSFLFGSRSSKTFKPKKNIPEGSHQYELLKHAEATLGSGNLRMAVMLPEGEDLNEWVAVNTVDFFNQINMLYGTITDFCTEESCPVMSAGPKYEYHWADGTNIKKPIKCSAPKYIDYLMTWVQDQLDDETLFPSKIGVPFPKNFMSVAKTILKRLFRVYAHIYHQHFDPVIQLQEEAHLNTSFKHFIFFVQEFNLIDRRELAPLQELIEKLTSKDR

Assay [2] has as its system TAZ nuclear translocation in SW1990 cells. Nature of the assay: TAZ Nuclear Translocation Assay. The format is cell-based. The note with it: Homo sapiens, 4 hours. In outline:
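SW1990 cells in RPMI1640/10% FBS treated with compounds for 4 h at 37 °C, then fixed and immunostained for TAZ with Hoechst nuclear counterstain and imaged by high-content imaging. Read-out is the nuclear/cytoplasmic-ring fluorescence ratio, normalized to DMSO (0%) and an inhibitor control (100%); EC50 from four-parameter fit.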

Assay [3] deals with T1, Human LATS2 catalytic domain. Nature of the assay: LATS2 High ATP HTRF Assay. The format is biochemical. The note with it: no asterisk: LATS2 High ATP HTRF Assay, 5000 μM ATP, 0.05 nM LATS2. The method, boiled down: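 LATS2 catalytic domain (G553-V1088) co-purified with Mob1b, 0.05 nM, pre-incubated 10 min with compound, then 5000 μM ATP and 0.5 μM STK S1 peptide in HEPES pH7.2 for 2 h at room temperature. HTRF 665/620 nm read; IC50 by four-parameter fit, Ki via Cheng-Prusoff with ATP Km 105 μM.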
(Time-resolved FRET reads energy transfer from a long-lived donor to a nearby acceptor.)

In assay [1], `N#CC1CC(N2CCC3(CCN(c4nc(-c5ccncc5)nc5cnccc45)CC3)C2)C1` (stereo not shown) [Compound 118, 3-(8-(2-(pyridin-4-yl)pyrido[3,4-d]pyrimidin-4-yl)-2,8-diazaspiro[4.5]decan-2-yl)cyclobutanecarbonitrile] had a Ki of 1.02 nM. In assay [2], this compound gave an EC50 above 10000 nM.
The matching figures for `c1cc(-c2nc(N3CCC4(CC3)CCN(C3CCOCC3)C4)c3ccncc3n2)ccn1` [Compound 122, 2-(pyridin-4-yl)-4-(2-(tetrahydro-2H-pyran-4-yl)-2,8-diazaspiro[4.5]decan-8-yl)pyrido[3,4-d]pyrimidine]: 1.02 nM and 990 nM.
For `c1cc(-c2nc(N3CCC4(CC3)CCN(C3COC3)C4)c3ccncc3n2)ccn1` [Compound 137, 4-(2-(oxetan-3-yl)-2,8-diazaspiro[4.5]decan-8-yl)-2-(pyridin-4-yl)pyrido[3,4-d]pyrimidine], in that order: 2.17 nM and 1700 nM.
For `FC(F)(F)c1[nH]ncc1-c1nc(N2CCC3(CCNC3)CC2)c2ccncc2n1` [Compound 154, 4-(2,8-diazaspiro[4.5]decan-8-yl)-2-(5-(trifluoromethyl)-1H-pyrazol-4-yl)pyrido[3,4-d]pyrimidine], in that order: 0.16 nM and 7200 nM.
Turning to `Cc1cc2c(N3CCC4(CCNC4)CC3)nc(-c3ccncc3)nc2cn1` [Compound 158, 6-methyl-2-(pyridin-4-yl)-4-(2,8-diazaspiro[4.5]decan-8-yl)pyrido[3,4-d]pyrimidine], the Ki in assay [1] was 1.29 nM. The compound also had an EC50 in assay [2] of 3100 nM.
Turning to `O=C1CC2(CCN(c3nc(-c4ccncc4)nc4cnccc34)CC2)CN1` [Compound 164, 8-(2-(pyridin-4-yl)pyrido[3,4-d]pyrimidin-4-yl)-2,8-diazaspiro[4.5]decan-3-one], the figures for the Ki in assay [3] and in assay [1] were 53.5 nM and 9.42 nM, respectively. This compound also returned an EC50 in assay [2] above 10000 nM.
The matching figures for `O=C1NCCC12CCN(c1nc(-c3ccncc3)nc3cnccc13)CC2` [Compound 165, 8-(2-(pyridin-4-yl)pyrido[3,4-d]pyrimidin-4-yl)-2,8-diazaspiro[4.5]decan-1-one]: 5.35 nM, 3.93 nM and 6500 nM.
